Earlier results, collected in patent US9532875B2, “Combined space maintenance and bone regeneration system for the reconstruction of large osseous defects” (WILLIAM MARSH RICE UNIVERSITY, priority 2010, dated 2017).

Test system: susceptible species
Settings: reported

Substance: Colistin sulfate salt
- minimum inhibitory concentrations (MICs): 0.5 to 5 µg/mL
